This is an account of results in patent publication EP4417202A1, “ANTI-CANCER ACTION OF BAG1-SELECTIVE IMIDAZOPYRIDINE COMPOUNDS IN STEROID HORMONE RECEPTOR-POSITIVE BREAST AND PROSTATE CANCER” (Karlsruher Institut für Technologie, priority 2023, dated 2024).

One experiment concerns p53. In words: Western blot of p53 level in breast cancer cells. The conditions noted are these: 48 h. Format: cell-based. For orientation: In western blotting, separated proteins are transferred to a membrane and probed.
The next experiment concerns the target T1, BAG1M (Homo sapiens, UniProt Q99933).
T1 construct: endogenous in cells; host or cells: MCF-7
In words: Cellular thermal shift assay (Tagg-CETSA) in MCF-7 cells. The conditions noted are these: 1 µM, 1 h. Format: binding. As to the method: (§1) To determine the aggregation temperature (Tagg-CETSA), MCF-7 cells were harvested and resuspended at a concentration of 2×10^6 cells/ml. X15695 (1 µM) or the same volume of DMSO were added to the cell suspension and incubated for 1 h at 37°C. Cells were washed and resuspend with phosphate-buffered saline (PBS) to a final concentration of 3×10^7 cells/ml. The cell suspension was evenly distributed into different tubes and treated with a gradient of temperature ranging from 37 to 62°C for 3 min. Cells were incubated 3 min at room temperature to ensure a uniform temperature between different tubes and then snap frozen with liquid nitrogen. Cells were lysed by freeze/thaw cycles with liquid nitrogen and centrifuged at 20,000 g for 20 min. Stable BAG proteins present in the supernatant were quantified by Western blotting using an anti-BAG1, 2, 3, and 5 antibodies and β-actin antibody for loading control.

The target in experiment [1] is T2, BAG1 (Homo sapiens, UniProt Q99933).
T2 construct: endogenous in cells; host or cells: MCF-7
T2 sequence (Q99933 116-345): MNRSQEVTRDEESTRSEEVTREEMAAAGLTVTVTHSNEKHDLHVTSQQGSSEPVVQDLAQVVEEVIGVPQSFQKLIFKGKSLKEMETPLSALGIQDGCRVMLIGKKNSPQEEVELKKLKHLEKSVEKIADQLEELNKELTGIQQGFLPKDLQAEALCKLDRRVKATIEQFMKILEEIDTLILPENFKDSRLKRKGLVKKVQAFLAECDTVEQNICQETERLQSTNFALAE
The experiment is described as above. To be noted: 1 µM, 1 h. In kind it is binding. As to the method: as §1

In a further experiment the target is T3, BAG1L (Homo sapiens, UniProt Q99933).
T3 construct: endogenous in cells; host or cells: MCF-7
T3 sequence (Q99933 whole entry): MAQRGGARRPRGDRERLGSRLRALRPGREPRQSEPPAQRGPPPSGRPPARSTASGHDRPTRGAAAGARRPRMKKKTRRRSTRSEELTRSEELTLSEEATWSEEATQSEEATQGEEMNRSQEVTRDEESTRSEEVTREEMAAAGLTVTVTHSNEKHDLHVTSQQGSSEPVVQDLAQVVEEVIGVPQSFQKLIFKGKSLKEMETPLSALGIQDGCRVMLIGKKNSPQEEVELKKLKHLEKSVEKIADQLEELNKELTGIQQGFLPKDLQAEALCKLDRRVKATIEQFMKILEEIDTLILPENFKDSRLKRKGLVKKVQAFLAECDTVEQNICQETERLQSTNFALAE
Described as above. The conditions noted are these: 1 µM, 1 h. In kind it is binding. How it is done:
as §1

A further experiment concerns MCF-7 and T47D cells. In words: Apoptosis assessment, 7-AAD and Annexin V double staining. In kind it is cell-based. The conditions noted are these: 1 µM, 48 h. As to the method: Induction of apoptosis in response to treatment with X15695 was analyzed in MCF-7 and T47D cells using PE Annexin V Apoptosis Detection Kit with 7-AAD (BD Bioscience, San Diego, CA, USA) according to the manufacturer's protocol. In short, cells were harvested by trypsinization, and single cell suspensions (1×10^6 cells) were prepared as described above in 100 µl PBS. Cells were stained with 5 µl PE Annexin V and 5 µl 7-AAD for 15 min at room temperature in the dark. Subsequently, 400 µl PBS were added to each sample and flow cytometry measurements were performed within one hour. Cells stained with PE Annexin V or 7-AAD alone were used for compensation. Flow cytometry analysis was performed using BD FACSAria (BD Biosciences, Franklin Lakes, NJ, USA). Flow cytometry data were analyzed using FlowJo 10.8.1 cytometry analysis software (FlowJo, LLC).

The test system of experiment [2] is ERα. To be noted: MCF-7 cells, 1 µM for 24 h, then 100 µg/ml cycloheximide; > 120 min in the absence of X15695.
Method: Thereafter, cells were incubated with the protein synthesis inhibitor cycloheximide (100 µg/ml) and harvested at time points 0, 30, 60, 90 and 120 min. Cells were lysed and used for Western blotting to determine the ERα level at each time point.
For the next experiment, the system named is LNCaP and LAPC-4 cells. Nature of the experiment: Apoptosis by automated high-throughput microscopy (Hoechst / propidium iodide). Format: cell-based. The conditions noted are these: 48 h. As to the method: Apoptosis in LNCaP and LAPC-4 cells was measured using an automated high-throughput microscopy method known in the art. In brief, LNCaP and LAPC4 cells (5×10^3) were seeded in a 96-well plate format. Cells were treated with 10^-9 - 10^-6 M X15695, DMSO or etoposide (250 µM) for 48h. Cells were stained with Hoechst 33342 (0,15 µg/ml) and propidium iodide (PI) (0,25 µg/ml) for 30 min at 37°C. Four brightfield and fluorescence images were acquired from different positions in each well using an automated Olympus IX81 fluorescence microscope (Olympus, Hamburg, Germany). The Hoechst dye was detected at excitation 350 nm and emission 450 nm and PI dye was detected at 488 nm and 590 nm. The total number of cells (all Hoechst-stained nuclei) as well as the number of early apoptotic, late apoptotic, and necrotic cells (combination of Hoechst and PI nuclei intensity) was obtained by analyzing images with the scan^R software (version 2.7.3, Olympus, Hamburg, Germany).

Another experiment has as its system AR. In words: Western blot of AR level in prostate cancer cells. In kind it is cell-based. To be noted: LNCaP and 22Rv.1 cells, 24 h.
Experiment [3] has as its system ERα. How it is done:
For Western blotting, cells were lysed in NP-40 lysis buffer (1% NP-40, 50 mM Tris-HCl, pH 8.0, 150 mM NaCl, 5 mM EDTA) or 1× passive lysis buffer (Promega, Germany) for 15 min on ice. Cell debris was removed by centrifugation at 13,000 rpm for 10 min and used for SDS-polyacrylamide gel electrophoresis (PAGE) and Western blotting.
Western Blotting was carried out using standard protocols with antibodies: p53 (clone DO1), p53 (Sp5, Thermo Fisher Scientific Karlsruhe, Germany), Mdm2 (4B2, Abcam, Cambridge, UK). […] Secondary goat anti-mouse and goat anti-rabbit antibodies were purchased from DAKO (Bollschweil, Germany).

The target of a further experiment is T4, BAG5 with mutant p53 (Homo sapiens, UniProt Q9UL15).
T4 construct: endogenous in cells; host or cells: T47D
T4 sequence (Q9UL15 whole entry, stated change not applied): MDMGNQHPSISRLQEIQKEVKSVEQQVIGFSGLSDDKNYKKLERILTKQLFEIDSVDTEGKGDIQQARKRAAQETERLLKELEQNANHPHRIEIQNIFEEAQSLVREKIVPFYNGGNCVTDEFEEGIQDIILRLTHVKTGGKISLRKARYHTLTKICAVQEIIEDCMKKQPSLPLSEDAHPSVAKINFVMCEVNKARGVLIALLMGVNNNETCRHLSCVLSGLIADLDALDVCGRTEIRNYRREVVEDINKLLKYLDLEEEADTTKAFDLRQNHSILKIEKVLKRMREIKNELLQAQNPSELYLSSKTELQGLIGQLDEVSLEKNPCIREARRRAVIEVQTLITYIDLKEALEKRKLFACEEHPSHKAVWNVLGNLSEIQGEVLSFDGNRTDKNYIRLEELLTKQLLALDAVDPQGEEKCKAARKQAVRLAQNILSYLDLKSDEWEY
Nature of the experiment: Co-immunoprecipitation in T47D cells. Format: cell-based. To be noted: 1 µM, 48 h. As to the method: (§2) Cells were harvested, washed with PBS, and lysed using NP-40 lysis buffer. Protein A agarose beads (Thermo Fisher Scientific) were mixed with protein G agarose beads (Thermo Fisher Scientific) (4:1) and preincubated overnight at 4°C with anti-p53 or anti-BAG1 or control IgG antibody. Cellular extracts from X15695 treated and untreated cells (1,000 µg) were incubated with antibody-preincubated protein A/G agarose beads for 3 to 4 h at room temperature. The beads with immunoprecipitated proteins were collected at 4°C by centrifugation at 1,000 g for 5 min and washed 4 to 5 times with NP-40 lysis buffer. The immunoprecipitated proteins were eluted by heating in SDS sample buffer for 5 min at 95°C and resolved on SDS-PAGE. Thereafter, they were subjected to Western blot analysis to detect mortalin, BAG1, BAG2, BAG5 and p53. Cellular extracts containing 50 to 70 µg protein from X15695 treated and untreated cells were used as the input control for the targeted proteins.

In the next experiment the target is T5, BAG2 with mutant p53 (Homo sapiens, UniProt O95816).
T5 construct: endogenous in cells; host or cells: T47D
T5 sequence (O95816 whole entry, stated change not applied): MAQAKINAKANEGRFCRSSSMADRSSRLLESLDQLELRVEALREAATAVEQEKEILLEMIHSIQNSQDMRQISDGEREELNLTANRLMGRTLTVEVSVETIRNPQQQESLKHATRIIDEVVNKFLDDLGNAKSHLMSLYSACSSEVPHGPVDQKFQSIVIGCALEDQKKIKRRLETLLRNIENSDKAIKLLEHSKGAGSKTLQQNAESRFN
Nature of the experiment: Co-immunoprecipitation in T47D cells. Format: cell-based. To be noted: 1 µM, 48 h. As to the method: as §2

Experiment [4] relates to BAG1. Nature of the experiment: Western blot of BAG1 level in breast cancer cells. In kind it is cell-based. To be noted: MCF-7 and T47D cells, 48 h.
Experiment [5] has as its system TRMCF-7 cells (tamoxifen resistant MCF-7 cells). Nature of the experiment: MTT cell viability assay. To be noted: 48 h. Format: cell-based. How it is done:
[…] Cells transfected with siRNA were incubated for 72 h after X15695 addition. Thereafter, the medium was exchanged for a fresh medium containing 0.5 mg/ml MTT (Sigma-Aldrich) and incubated at 37°C for 1 h to 4 h (depending on cell line) until intracellular purple formazan crystals were formed. The MTT solution was removed, and the purple crystals were dissolved in isopropanol and the optical absorbance at 595 nm was recorded using SpectraMax iD3, Molecular Devices, San Jose, CA, USA.
Background: Formazan colour is commonly taken as a measure of viable cells.

T1 sequence (Q99933 72-345): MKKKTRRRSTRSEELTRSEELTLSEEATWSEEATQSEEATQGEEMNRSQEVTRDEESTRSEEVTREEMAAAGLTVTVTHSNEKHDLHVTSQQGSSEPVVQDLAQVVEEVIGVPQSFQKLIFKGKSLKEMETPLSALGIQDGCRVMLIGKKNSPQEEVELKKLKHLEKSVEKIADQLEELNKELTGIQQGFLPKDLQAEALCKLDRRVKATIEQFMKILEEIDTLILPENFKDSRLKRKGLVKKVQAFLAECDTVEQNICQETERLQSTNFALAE

For the compound `Fc1ccc(-c2cn3cc(C(F)(F)F)cc(Cl)c3n2)cc1` [Compound X15695, 8-Chloro-2-(4-fluorophenyl)-6-(trifluoromethyl)imidazo[1,2-a]pyridine], the p53 level entry is “significantly increased” with p53 (MCF-7 cells (wild-type p53)) and “not in T47D cells” in the experiment with p53 (T47D cells (mutated p53 L194F)). Also, the figures for the “increase of aggregation temperature (Tagg) over vehicle” value on BAG1M, at BAG1 [1] and on BAG1L were 1-2 °C, 3 °C and 1-2 °C, respectively. Besides, the apoptosis result was “increased number of the cells in the late stage of apoptosis” in the experiment on MCF-7 and T47D cells; “No apoptotic effect” with LNCaP and LAPC-4 cells. Further, in the experiment with ERα [2], the ERα half-life result is recorded as “about 60 min”. In addition, in the experiment with AR, the AR level result is given as “did not strongly downregulate AR level”. Also, the “ERα downregulation over time” value in the experiment with ERα [3] (MCF-7 cells, 1 µM, time course) was “rather slow but more sustained downregulation lasing over 24 to 48 h”. The “concentration sufficient to downregulate ERα” value in the experiment with ERα [3] (MCF-7 cells, 8 h) was ≤ 1 nM. Also, the ERα level result in the experiment on ERα [3] (immunoblotting, MCF-7 and T47D cells, 48 h) was “dose-dependently decreased ERα level”. The “interaction of BAG5 with mutant p53” value at BAG5 with mutant p53 was “not BAG5”. At BAG2 with mutant p53, the “interaction of BAG2 with mutant p53” value is “disrupts the interaction of BAG2”. For the same compound, in the experiment with BAG1 [4], the “level of the BAG1 proteins” value is given as “dose-dependent decrease in the level of the BAG1 proteins”. In [5], the inhibition of viability entry was “comparable activities”.
